This note sets out measurements from patent US10221177B2 (HYDRA BIOSCIENCES, INC., priority 2014, dated 2019).

Sequence of human TRPA1 (O75762 whole entry): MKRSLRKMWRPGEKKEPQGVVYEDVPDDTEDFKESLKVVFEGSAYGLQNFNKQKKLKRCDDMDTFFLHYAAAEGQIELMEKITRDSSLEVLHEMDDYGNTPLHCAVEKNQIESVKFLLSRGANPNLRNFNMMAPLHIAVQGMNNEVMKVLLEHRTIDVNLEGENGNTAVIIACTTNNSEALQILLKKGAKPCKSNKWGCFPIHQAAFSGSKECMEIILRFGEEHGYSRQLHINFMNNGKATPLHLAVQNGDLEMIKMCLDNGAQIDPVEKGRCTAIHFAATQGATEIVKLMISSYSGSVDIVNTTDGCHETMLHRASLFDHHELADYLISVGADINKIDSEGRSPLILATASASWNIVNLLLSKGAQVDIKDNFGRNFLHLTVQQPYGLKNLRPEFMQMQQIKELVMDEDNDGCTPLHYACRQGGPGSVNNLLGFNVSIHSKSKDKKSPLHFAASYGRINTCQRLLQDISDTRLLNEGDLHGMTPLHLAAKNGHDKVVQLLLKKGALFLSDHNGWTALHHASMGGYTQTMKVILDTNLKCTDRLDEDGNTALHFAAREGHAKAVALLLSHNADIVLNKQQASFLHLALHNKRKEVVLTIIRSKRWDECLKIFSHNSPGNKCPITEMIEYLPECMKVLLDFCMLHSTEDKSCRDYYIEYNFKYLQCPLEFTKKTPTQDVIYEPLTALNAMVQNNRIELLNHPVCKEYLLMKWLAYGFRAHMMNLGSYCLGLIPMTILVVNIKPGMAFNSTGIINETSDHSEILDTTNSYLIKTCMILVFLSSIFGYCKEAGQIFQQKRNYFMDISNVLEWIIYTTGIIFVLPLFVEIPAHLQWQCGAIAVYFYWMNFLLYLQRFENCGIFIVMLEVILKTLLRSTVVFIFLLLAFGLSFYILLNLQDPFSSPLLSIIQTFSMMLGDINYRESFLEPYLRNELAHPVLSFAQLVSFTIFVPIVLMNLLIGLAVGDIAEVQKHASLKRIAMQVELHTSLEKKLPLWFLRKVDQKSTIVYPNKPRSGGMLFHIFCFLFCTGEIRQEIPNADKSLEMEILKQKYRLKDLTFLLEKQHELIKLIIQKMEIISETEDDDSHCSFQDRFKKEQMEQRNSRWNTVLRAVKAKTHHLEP

The assay concerns the target human TRPA1 (Homo sapiens (Human), UniProt O75762). The assay can be described thus: In vitro inhibition of human TRPA1, whole cell patch configuration. The class given is cell-based. The following applies: current activation 10 μM AITC, tested concentrations 320 pM to 3.2 μM, read-out: hTRPA1 IC50. The protocol:
All currents were recorded in whole-cell configuration using EPC-9 and EPC-10 amplifiers and Patchmaster software (HEKA) or similar. […] The standard bath solution contained 150 mM NaCl, 10 mM HEPES, 10 mM glucose, 4.5 mM KCl, 1 mM EGTA, 3 mM MgCl2, with pH adjusted to 7.4 with NaOH. In some instances, 2 mM CaCl2 was added in place of EGTA and the concentration of MgCl2 was reduced to 1 mM.
Data were collected either by continuous recordings at −60 mV or by applying voltage ramps from a holding potential of −40 mV every 4 s. Continuous recordings were collected at 400 Hz and digitally filtered off-line at 10 Hz for presentation. Voltage ramps were applied from −100 mV or −80 mV to +100 mV or +80 mV over the course of 400 ms, and data were collected at 10 kHz and filtered at 2.9 kHz. Inward and outward currents were analyzed from the ramps at −80 and 80 mV, respectively. Liquid junction potential correction was not used.
Solutions were switched using a gravity-fed continuous focal perfusion system. To achieve rapid temperature changes, two temperature control, and perfusion systems were employed simultaneously. […] Temperatures were confirmed using a thermistor (Warner Instruments, TA-29), with temperatures at the recorded cell estimated to be within +/−2° C. of those reported.
The antagonist effects of compounds of Formula (I) against human TRPA1 (“hTRPA1”) in a whole cell patch configuration were evaluated using the in vitro assay described above.
What is called IC50 is the concentration that inhibits the measured activity by half. Turning to `CC(=O)Cn1c(=O)c2c(ncn2[C@@H](C)C(=O)Nc2cccc(-c3ccc(N4CC5CC5C4)nc3)n2)n(C)c1=O` (stereo partly drawn) [Compound 44, (2S)—N-(6′-(3-azabicyclo[3.1.0]hexan-3-yl)-2,3′-bipyridin-6-yl)-2-(3-methyl-2,6-dioxo-1-(2-oxopropyl)-2,3-dihydro-1H-purin-7(6H)-yl)propanamide], the IC50 turned out to be 14 nM.

Take `C[C@@H](C(=O)Nc1cccc(-c2cnc(N3CCC[C@H]3C(F)(F)F)nc2)n1)n1cnc2c1c(=O)n(CC#N)c(=O)n2C` [Compound 45, (S)-2-(1-(cyanomethyl)-3-methyl-2,6-dioxo-2,3-dihydro-1H-purin-7(6H)-yl)-N-(6-(2-((S)-2-(trifluoromethyl)pyrrolidin-1-yl)pyrimidin-5-yl)pyridin-2-yl)propanamide]: the IC50 stood at 4 nM.

As for `CC(=O)Cn1c(=O)c2c(ncn2[C@@H](C)C(=O)Nc2ccnc(-c3ccc(N4CC5CC5C4)nc3)n2)n(C)c1=O` (stereo partly drawn) [Compound 46, (2S)—N-(2-(6-(3-azabicyclo[3.1.0]hexan-3-yl)pyridin-3-yl)pyrimidin-4-yl)-2-(3-methyl-2,6-dioxo-1-(2-oxopropyl)-2,3-dihydro-1H-purin-7(6H)-yl)propanamide], the IC50 turned out to be 22 nM.

As to `CCC(=O)Cn1c(=O)c2c(ncn2[C@@H](C)C(=O)Nc2ccnc(-c3ccc(N4CC5CC5C4)nc3)n2)n(C)c1=O` (stereo partly drawn) [Compound 47, (2S)—N-(2-(6-(3-azabicyclo[3.1.0]hexan-3-yl)pyridin-3-yl)pyrimidin-4-yl)-2-(3-methyl-2,6-dioxo-1-(2-oxobutyl)-2,3-dihydro-1H-purin-7(6H)-yl)propanamide], the IC50 was found to be 4 nM.

For `C[C@@H](C(=O)Nc1cncc(-c2cnc(N3CCC[C@H]3C(F)(F)F)nc2)n1)n1cnc2c1c(=O)n(CC#N)c(=O)n2C` [Compound 48, (S)-2-(1-(cyanomethyl)-3-methyl-2,6-dioxo-2,3-dihydro-1H-purin-7(6H)-yl)-N-(6-(2-((S)-2-(trifluoromethyl)pyrrolidin-1-yl)pyrimidin-5-yl)pyrazin-2-yl)propanamide], the IC50 was determined as 7 nM.

In the case of `C[C@@H](C(=O)Nc1ccnc(-c2cnc(N3CCC[C@@H]3C(F)(F)F)nc2)n1)n1cnc2c1c(=O)n(CC#N)c(=O)n2C` [Compound 49, (S)-2-(1-(cyanomethyl)-3-methyl-2,6-dioxo-2,3-dihydro-1H-purin-7(6H)-yl)-N-(2′-((R)-2-(trifluoromethyl)pyrrolidin-1-yl)-2,5′-bipyrimidin-4-yl)propanamide], the IC50 is 7 nM.

`C[C@@H](C(=O)Nc1csc(-c2cnc(N3CCC[C@@H]3C(F)(F)F)nc2)n1)n1cnc2c1c(=O)n(CC#N)c(=O)n2C` [Compound 50]: the IC50 stood at 4 nM.

Take `C[C@@H](C(=O)Nc1cccc(-c2cnc(C(F)(F)F)nc2)n1)n1cnc2c1c(=O)n(CC1COC1)c(=O)n2C` [Compound 51, (S)-2-(3-methyl-1-(oxetan-3-ylmethyl)-2,6-dioxo-2,3-dihydro-1H-purin-7(6H)-yl)-N-(6-(2-(trifluoromethyl)pyrimidin-5-yl)pyridin-2-yl)propanamide]: the IC50 was > 3200 nM.

Turning to `CCCC(=O)Cn1c(=O)c2c(ncn2[C@@H](C)C(=O)Nc2cccc(-c3cnc(C(F)(F)F)nc3)n2)n(C)c1=O` [Compound 52, (S)-2-(3-methyl-2,6-dioxo-1-(2-oxopentyl)-2,3-dihydro-1H-purin-7(6H)-yl)-N-(6-(2-(trifluoromethyl)pyrimidin-5-yl)pyridin-2-yl)propanamide], the IC50 is 23 nM.

With `C[C@@H](C(=O)Nc1ccnc(-c2ccc(N3CC4CC4C3)nc2)n1)n1cnc2c1c(=O)n(CC#N)c(=O)n2C` (stereo partly drawn) [Compound 53, (2S)—N-(2-(6-(3-azabicyclo[3.1.0]hexan-3-yl)pyridin-3-yl)pyrimidin-4-yl)-2-(1-(cyanomethyl)-3-methyl-2,6-dioxo-2,3-dihydro-1H-purin-7(6H)-yl)propanamide], the IC50 was 14 nM.

With `C[C@@H](C(=O)Nc1ccnc(-c2cnc(N3CCC[C@H]3C(F)(F)F)nc2)n1)n1cnc2c1c(=O)n(CC#N)c(=O)n2C` [Compound 54, (S)-2-(1-(cyanomethyl)-3-methyl-2,6-dioxo-2,3-dihydro-1H-purin-7(6H)-yl)-N-(2′-((S)-2-(trifluoromethyl)pyrrolidin-1-yl)-2,5′-bipyrimidin-4-yl)propanamide], the IC50 was determined as 7 nM.

As to `Cc1cc(Cn2c(=O)c3c(ncn3[C@@H](C)C(=O)Nc3cncc(-c4cncc(C(F)(F)F)c4)n3)n(C)c2=O)no1` [Compound 55, (S)-2-(3-methyl-1-((5-methylisoxazol-3-yl)methyl)-2,6-dioxo-2,3-dihydro-1H-purin-7(6H)-yl)-N-(6-(5-(trifluoromethyl)pyridin-3-yl)pyrazin-2-yl)propanamide], the IC50 stood at 5 nM.

For `CC(=O)Cn1c(=O)c2c(ncn2[C@@H](C)C(=O)Nc2csc(-c3cnc(N4CC5C(C4)C5(F)F)nc3)n2)n(C)c1=O` (stereo partly drawn) [Compound 56, (2S)—N-(2-(2-(6,6-difluoro-3-azabicyclo[3.1.0]hexan-3-yl)pyrimidin-5-yl)thiazol-4-yl)-2-(3-methyl-2,6-dioxo-1-(2-oxopropyl)-2,3-dihydro-1H-purin-7(6H)-yl)propanamide], the IC50 worked out at 3 nM.

On to `CCC(=O)Cn1c(=O)c2c(ncn2[C@@H](C)C(=O)Nc2csc(-c3cnc(N4CC5C(C4)C5(F)F)nc3)n2)n(C)c1=O` (stereo partly drawn) [Compound 57, (2S)—N-(2-(2-(6,6-difluoro-3-azabicyclo[3.1.0]hexan-3-yl)pyrimidin-5-yl)thiazol-4-yl)-2-(3-methyl-2,6-dioxo-1-(2-oxobutyl)-2,3-dihydro-1H-purin-7(6H)-yl)propanamide], for which the IC50 worked out at 2 nM.

With `C[C@@H](C(=O)Nc1csc(-c2cnc(N3CC4C(C3)C4(F)F)nc2)n1)n1cnc2c1c(=O)n(CC#N)c(=O)n2C` (stereo partly drawn) [Compound 58, (2S)-2-(1-(cyanomethyl)-3-methyl-2,6-dioxo-2,3-dihydro-1H-purin-7(6H)-yl)-N-(2-(2-(6,6-difluoro-3-azabicyclo[3.1.0]hexan-3-yl)pyrimidin-5-yl)thiazol-4-yl)propanamide], the IC50 is 2 nM.

Turning to `COCC(=O)Cn1c(=O)c2c(ncn2[C@@H](C)C(=O)Nc2cccc(-c3cnc(C(F)(F)F)nc3)n2)n(C)c1=O` [Compound 59, (S)-2-(1-(3-methoxy-2-oxopropyl)-3-methyl-2,6-dioxo-2,3-dihydro-1H-purin-7(6H)-yl)-N-(6-(2-(trifluoromethyl)pyrimidin-5-yl)pyridin-2-yl)propanamide], the half-inhibitory concentration (IC50) was determined as 45 nM.

As for `C[C@@H](C(=O)Nc1cncc(-c2cnc(N3CC4C(C3)C4(F)F)nc2)n1)n1cnc2c1c(=O)n(CC#N)c(=O)n2C` (stereo partly drawn) [Compound 60, (2S)-2-(1-(cyanomethyl)-3-methyl-2,6-dioxo-2,3-dihydro-1H-purin-7(6H)-yl)-N-(6-(2-(6,6-difluoro-3-azabicyclo[3.1.0]hexan-3-yl)pyrimidin-5-yl)pyrazin-2-yl)propanamide], the IC50 is 7 nM.

As to `CCC(=O)Cn1c(=O)c2c(ncn2[C@@H](C)C(=O)Nc2ccnc(-c3cnc(N4CC5C(C4)C5(F)F)nc3)n2)n(C)c1=O` (stereo partly drawn) [Compound 62, (2S)—N-(2′-(6,6-difluoro-3-azabicyclo[3.1.0]hexan-3-yl)-[2,5′-bipyrimidin]-4-yl)-2-(3-methyl-2,6-dioxo-1-(2-oxobutyl)-2,3-dihydro-1H-purin-7(6H)-yl)propanamide], the IC50 is 5 nM.

Regarding `CC(=O)Cn1c(=O)c2c(ncn2[C@@H](C)C(=O)Nc2csc(-c3ccc(N4CC5CC5C4)nc3)n2)n(C)c1=O` (stereo partly drawn) [Compound 63, (2S)—N-(2-(6-(3-azabicyclo[3.1.0]hexan-3-yl)pyridin-3-yl)thiazol-4-yl)-2-(3-methyl-2,6-dioxo-1-(2-oxopropyl)-2,3-dihydro-1H-purin-7(6H)-yl)propanamide], the IC50 was determined as 2 nM.

For the compound `C[C@@H](C(=O)Nc1csc(-c2ccc(N3CC4CC4C3)nc2)n1)n1cnc2c1c(=O)n(CC#N)c(=O)n2C` (stereo partly drawn) [Compound 64, (2S)—N-(2-(6-(3-azabicyclo[3.1.0]hexan-3-yl)pyridin-3-yl)thiazol-4-yl)-2-(1-(cyanomethyl)-3-methyl-2,6-dioxo-2,3-dihydro-1H-purin-7(6H)-yl)propanamide], the IC50 was 2 nM.

In the case of `CC(=O)Cn1c(=O)c2c(ncn2[C@@H](C)C(=O)Nc2cccc(-c3ccc(N4CC5C(C4)C5(F)F)nc3)n2)n(C)c1=O` (some centres unmarked) [Compound 65], the IC50 turned out to be 8 nM.

Regarding `C[C@@H](C(=O)Nc1csc(-c2ccc(N3CC4CC4C3)nc2)n1)n1cnc2c1c(=O)n(CC#N)c(=O)n2C` (stereo partly drawn) [Compound 66, (2S)—N-(2-(6-(3-azabicyclo[3.1.0]hexan-3-yl)pyridin-3-yl)thiazol-4-yl)-2-(1-(cyanomethyl)-3-methyl-2,6-dioxo-2,3-dihydro-1H-purin-7(6H)-yl)propanamide], the IC50 came out at 2 nM.

Regarding `C[C@@H](C(=O)Nc1ccnc(-c2cnc(N3CC4C(C3)C4(F)F)nc2)n1)n1cnc2c1c(=O)n(CC#N)c(=O)n2C` (stereo partly drawn) [Compound 67, (2S)-2-(1-(cyanomethyl)-3-methyl-2,6-dioxo-2,3-dihydro-1H-purin-7(6H)-yl)-N-(2′-(6,6-difluoro-3-azabicyclo[3.1.0]hexan-3-yl)-[2,5′-bipyrimidin]-4-yl)propanamide], the IC50 came out at 7 nM.
